# From publication PMC6150173, “Tryptophan-Containing Cyclic Decapeptides with Activity against Plant Pathogenic Bacteria” (Molecules : A Journal of Synthetic Chemistry and Natural …, 2017)
# Peptide text beside a SMILES is read from it.
# Experiments:
# Assay type in all cases: cell-based
# [1] = test system: Pseudomonas syringae pv. syringae EPS94; test: Antibacterial activity (MIC), in vitro growth inhibition; conditions: Table S1, MIC range
# Protocol: (§1) Erwinia amylovora PMV6076 (Institut National de la Recherche Agronomique, Angers, France), Pseudomonas syringae pv. syringae EPS94 (Institut de Tecnologia Agroalimentària, Universitat de Girona, Spain), and Xanthomonas axonopodis pv. vesicatoria 2133-2 (Instituto Valenciano de Investigaciones Agrarias, Valencia, Spain) were used as bacterial strains. They were stored and cultivated as previously described.
# (§2) The minimum inhibitory concentration (MIC) was analyzed as previously described at 0.8, 1.6, 3.1, 6.2, 12.5, 25 and 50 μM [20].
# [2] = test system: Xanthomonas axonopodis pv. vesicatoria 2133-2; conditions: Table S1, MIC range
# Protocol: as §1, §2
# [3] = test system: erythrocyte suspensions of human blood; test: Hemolytic activity, hemoglobin release; conditions: human blood erythrocytes 5% v/v, absorbance 540 nm, percentage compared to melittin, three replicates; for Hemolysis (%) at 50 µM: peptide 50 μM (table prints 50 µM); for Hemolysis (%) at 125 µM: peptide 125 μM (table prints 125 µM)
# Protocol: The hemolytic activity of the compounds was evaluated at 50 and 125 μM by determining hemoglobin release from erythrocyte suspensions of human blood (5% v/v) (Oxoid) using absorbance at 540 nm, as previously described. Three replicates for each peptide concentration were used.
smiles,measurement,setting,value
"CC(C)C[C@@H]1NC(=O)[C@H](CCCCN)NC(=O)[C@H](Cc2c[nH]c3ccccc23)NC(=O)[C@H](CC(C)C)NC(=O)[C@H](CCCCN)NC(=O)[C@H](CC(C)C)NC(=O)[C@H](CCCCN)NC(=O)[C@H](CCCCN)NC(=O)[C@H](CCC(N)=O)NC(=O)[C@H](CCCCN)NC1=O [BPC112W, c(KKLKLWKLKQ)] (cyclo(KKLKLWKLKQ))",MIC Pss,[1],3.1 to 6.2 µM
same,MIC Xav,[2],6.2 to 12.5 µM
same,Hemolysis (%) at 50 µM,[3],3%
same,Hemolysis (%) at 125 µM,[3],4%
"CC(C)C[C@@H]1NC(=O)[C@H](CCC(N)=O)NC(=O)[C@H](CC(C)C)NC(=O)[C@H](CCCCN)NC(=O)[C@H](CCCCN)NC(=O)[C@H](Cc2c[nH]c3ccccc23)NC(=O)[C@H](CCCCN)NC(=O)[C@H](CCCCN)NC(=O)[C@H](CCCCN)NC(=O)[C@H](CCCCN)NC1=O [BPC190W, c(LKKKKWKKLQ)] (cyclo(KKKKWKKLQL))",MIC Pss,[1],25 to 50 µM
same,MIC Xav,[2],12.5 to 25 µM
same,Hemolysis (%) at 50 µM,[3],1%
same,Hemolysis (%) at 125 µM,[3],3%
"CC(C)C[C@@H]1NC(=O)[C@H](CCCCN)NC(=O)[C@H](CCCCN)NC(=O)[C@H](Cc2c[nH]c3ccccc23)NC(=O)[C@H](CCCCN)NC(=O)[C@H](CCCCN)NC(=O)[C@H](CC(C)C)NC(=O)[C@H](CC(C)C)NC(=O)[C@H](CC(C)C)NC(=O)[C@H](CCC(N)=O)NC1=O [BPC188W, c(LLLKKWKKLQ)] (cyclo(KKLQLLLKKW))",MIC Pss,[1],6.2 to 12.5 µM
same,MIC Xav,[2],12.5 to 25 µM
same,Hemolysis (%) at 50 µM,[3],33%
same,Hemolysis (%) at 125 µM,[3],48%
"CC(C)C[C@@H]1NC(=O)[C@H](CCC(N)=O)NC(=O)[C@H](CCCCN)NC(=O)[C@H](CCCCN)NC(=O)[C@H](CCCCN)NC(=O)[C@H](Cc2c[nH]c3ccccc23)NC(=O)[C@H](CC(C)C)NC(=O)[C@H](CCCCN)NC(=O)[C@H](CC(C)C)NC(=O)[C@H](CCCCN)NC1=O [BPC156W, c(LKLKLWKKKQ)] (cyclo(KKKQLKLKLW))",MIC Pss,[1],6.2 to 12.5 µM
same,MIC Xav,[2],3.1 to 6.2 µM
same,Hemolysis (%) at 50 µM,[3],1%
same,Hemolysis (%) at 125 µM,[3],2%
"CC(C)C[C@@H]1NC(=O)[C@H](CCCCN)NC(=O)[C@H](CCC(N)=O)NC(=O)[C@H](CCCCN)NC(=O)[C@H](CCCCN)NC(=O)[C@H](CCCCN)NC(=O)[C@H](Cc2c[nH]c3ccccc23)NC(=O)[C@H](CC(C)C)NC(=O)[C@H](CC(C)C)NC(=O)[C@H](CCCCN)NC1=O [BPC150W, c(KLKLLWKKKQ)] (cyclo(KKKQKLKLLW))",MIC Pss,[1],12.5 to 25 µM
same,MIC Xav,[2],6.2 to 12.5 µM
same,Hemolysis (%) at 50 µM,[3],17%
same,Hemolysis (%) at 125 µM,[3],32%
"CC(C)C[C@@H]1NC(=O)[C@H](CCCCN)NC(=O)[C@H](CCCCN)NC(=O)[C@H](Cc2c[nH]c3ccccc23)NC(=O)[C@H](CCCCN)NC(=O)[C@H](CC(C)C)NC(=O)[C@H](CCCCN)NC(=O)[C@H](CCCCN)NC(=O)[C@H](CCCCN)NC(=O)[C@H](CCC(N)=O)NC1=O [BPC186W, c(KKKLKWKKLQ)] (cyclo(KKKLKWKKLQ))",MIC Pss,[1],12.5 to 25 µM
same,MIC Xav,[2],6.2 to 12.5 µM
same,Hemolysis (%) at 50 µM,[3],1%
same,Hemolysis (%) at 125 µM,[3],1%
"CC(C)C[C@@H]1NC(=O)[C@H](CCC(N)=O)NC(=O)[C@H](CCCCN)NC(=O)[C@H](CCCCN)NC(=O)[C@H](CCCCN)NC(=O)[C@H](Cc2c[nH]c3ccccc23)NC(=O)[C@H](CC(C)C)NC(=O)[C@H](CC(C)C)NC(=O)[C@H](CCCCN)NC(=O)[C@H](CCCCN)NC1=O [BPC152W, c(LKKLLWKKKQ)] (cyclo(KKKQLKKLLW))",MIC Pss,[1],6.2 to 12.5 µM
same,MIC Xav,[2],6.2 to 12.5 µM
same,Hemolysis (%) at 50 µM,[3],1%
same,Hemolysis (%) at 125 µM,[3],3%
"CC(C)C[C@@H]1NC(=O)[C@H](CCCCN)NC(=O)[C@H](CC(C)C)NC(=O)[C@H](CC(C)C)NC(=O)[C@H](CCC(N)=O)NC(=O)[C@H](CC(C)C)NC(=O)[C@H](CCCCN)NC(=O)[C@H](CCCCN)NC(=O)[C@H](Cc2c[nH]c3ccccc23)NC(=O)[C@H](CCCCN)NC1=O [BPC196W, c(LLKLKWKKLQ)] (cyclo(KKLQLLKLKW))",MIC Pss,[1],3.1 to 6.2 µM
same,MIC Xav,[2],1.6 to 3.1 µM
same,Hemolysis (%) at 50 µM,[3],2%
same,Hemolysis (%) at 125 µM,[3],3%
"CC(C)C[C@@H]1NC(=O)[C@H](Cc2c[nH]c3ccccc23)NC(=O)[C@H](CCCCN)NC(=O)[C@H](CCCCN)NC(=O)[C@H](CCCCN)NC(=O)[C@H](CCCCN)NC(=O)[C@H](CCCCN)NC(=O)[C@H](CCC(N)=O)NC(=O)[C@H](CC(C)C)NC(=O)[C@H](CC(C)C)NC1=O [BPC058W, c(KKKKKWLLLQ)] (cyclo(KKKKKWLLLQ))",MIC Pss,[1],12.5 to 25 µM
same,MIC Xav,[2],25 to 50 µM
same,Hemolysis (%) at 50 µM,[3],2%
same,Hemolysis (%) at 125 µM,[3],3%
"CC(C)C[C@@H]1NC(=O)[C@H](CCCCN)NC(=O)[C@H](Cc2c[nH]c3ccccc23)NC(=O)[C@H](CCCCN)NC(=O)[C@H](CC(C)C)NC(=O)[C@H](CCCCN)NC(=O)[C@H](CC(C)C)NC(=O)[C@H](CCCCN)NC(=O)[C@H](CCC(N)=O)NC(=O)[C@H](CCCCN)NC1=O [BPC016W, c(KLKLKWKLKQ)] (cyclo(KLKLKWKLKQ))",MIC Pss,[1],12.5 to 25 µM
same,MIC Xav,[2],3.1 to 6.2 µM
same,Hemolysis (%) at 50 µM,[3],25%
same,Hemolysis (%) at 125 µM,[3],32%
"CC(C)C[C@@H]1NC(=O)[C@H](CCCCN)NC(=O)[C@H](CCC(N)=O)NC(=O)[C@H](CCCCN)NC(=O)[C@H](CCCCN)NC(=O)[C@H](CCCCN)NC(=O)[C@H](Cc2c[nH]c3ccccc23)NC(=O)[C@H](CCCCN)NC(=O)[C@H](CC(C)C)NC(=O)[C@H](CC(C)C)NC1=O [BPC160W, c(KLLLKWKKKQ)] (cyclo(KKKQKLLLKW))",MIC Pss,[1],6.2 to 12.5 µM
same,MIC Xav,[2],6.2 to 12.5 µM
same,Hemolysis (%) at 50 µM,[3],3%
same,Hemolysis (%) at 125 µM,[3],6%
"CC(C)C[C@@H]1NC(=O)[C@H](CCCCN)NC(=O)[C@H](CCCCN)NC(=O)[C@H](Cc2c[nH]c3ccccc23)NC(=O)[C@H](CCCCN)NC(=O)[C@H](CCCCN)NC(=O)[C@H](CCCCN)NC(=O)[C@H](CCCCN)NC(=O)[C@H](CCCCN)NC(=O)[C@H](CCC(N)=O)NC1=O [BPC202W, c(KKKKKWKKLQ)] (cyclo(KKKKKWKKLQ))",MIC Pss,[1],25 to 50 µM
same,MIC Xav,[2],12.5 to 25 µM
same,Hemolysis (%) at 50 µM,[3],0%
same,Hemolysis (%) at 125 µM,[3],1%
"CC(C)C[C@@H]1NC(=O)[C@H](CCC(N)=O)NC(=O)[C@H](CCCCN)NC(=O)[C@H](CCCCN)NC(=O)[C@H](CCCCN)NC(=O)[C@H](Cc2c[nH]c3ccccc23)NC(=O)[C@H](CCCCN)NC(=O)[C@H](CC(C)C)NC(=O)[C@H](CC(C)C)NC(=O)[C@H](CCCCN)NC1=O [BPC162W, c(LKLLKWKKKQ)] (cyclo(KKKQLKLLKW))",MIC Pss,[1],6.2 to 12.5 µM
same,MIC Xav,[2],3.1 to 6.2 µM
same,Hemolysis (%) at 50 µM,[3],57%
same,Hemolysis (%) at 125 µM,[3],56%
"CC(C)C[C@@H]1NC(=O)[C@H](CCC(N)=O)NC(=O)[C@H](CC(C)C)NC(=O)[C@H](CCCCN)NC(=O)[C@H](CCCCN)NC(=O)[C@H](Cc2c[nH]c3ccccc23)NC(=O)[C@H](CCCCN)NC(=O)[C@H](CC(C)C)NC(=O)[C@H](CCCCN)NC(=O)[C@H](CCCCN)NC1=O [BPC092W, c(LKKLKWKKLQ)] (cyclo(KKLKWKKLQL))",MIC Pss,[1],6.2 to 12.5 µM
same,MIC Xav,[2],3.1 to 6.2 µM
same,Hemolysis (%) at 50 µM,[3],2%
same,Hemolysis (%) at 125 µM,[3],3%
"CC(C)C[C@@H]1NC(=O)[C@H](CCC(N)=O)NC(=O)[C@H](CCCCN)NC(=O)[C@H](CCCCN)NC(=O)[C@H](CCCCN)NC(=O)[C@H](Cc2c[nH]c3ccccc23)NC(=O)[C@H](CCCCN)NC(=O)[C@H](CCCCN)NC(=O)[C@H](CC(C)C)NC(=O)[C@H](CC(C)C)NC1=O [BPC166W, c(LLLKKWKKKQ)] (cyclo(KKKQLLLKKW))",MIC Pss,[1],6.2 to 12.5 µM
same,MIC Xav,[2],6.2 to 12.5 µM
same,Hemolysis (%) at 50 µM,[3],1%
same,Hemolysis (%) at 125 µM,[3],1%
"CC(C)C[C@@H]1NC(=O)[C@H](CCCCN)NC(=O)[C@H](CCCCN)NC(=O)[C@H](Cc2c[nH]c3ccccc23)NC(=O)[C@H](CCCCN)NC(=O)[C@H](CC(C)C)NC(=O)[C@H](CC(C)C)NC(=O)[C@H](CC(C)C)NC(=O)[C@H](CC(C)C)NC(=O)[C@H](CCC(N)=O)NC1=O [BPC200W, c(LLLLKWKKLQ)] (cyclo(KKLQLLLLKW))",MIC Pss,[1],> 50 µM
same,MIC Xav,[2],3.1 to 6.2 µM
same,Hemolysis (%) at 50 µM,[3],6%
same,Hemolysis (%) at 125 µM,[3],7%
"CC(C)C[C@@H]1NC(=O)[C@H](CCCCN)NC(=O)[C@H](CCCCN)NC(=O)[C@H](CCCCN)NC(=O)[C@H](CCCCN)NC(=O)[C@H](CCC(N)=O)NC(=O)[C@H](CCCCN)NC(=O)[C@H](CC(C)C)NC(=O)[C@H](CC(C)C)NC(=O)[C@H](Cc2c[nH]c3ccccc23)NC1=O [BPC100W, c(KKKKLWLLKQ)] (cyclo(KKKKLWLLKQ))",MIC Pss,[1],12.5 to 25 µM
same,MIC Xav,[2],6.2 to 12.5 µM
same,Hemolysis (%) at 50 µM,[3],19%
same,Hemolysis (%) at 125 µM,[3],27%
